Measured values reported in patent US9434711B2 (Janssen Pharmaceutica, NV, priority 2007, dated 2016).

Biological target: canine TRPM8 (Canis lupus familiaris, UniProt Q1A7N1)
Test: In Vitro Canine TRPM8 Functional Assay (Ca2+ fluorescence, icilin activation)
Type: cell-based
Settings: for IC50: HEK293 cells stably expressing canine TRPM8, icilin activation, eight-point dose-response, read-out: IC50; for inhibition at 0.2 µM / % Inh @ 0.2 (μM): compound at 0.2 μM, canine TRPM8, icilin activation; for inhibition at 0.2 µM: read-out: % Inh @ 0.2
Summary of the method: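 Cells (HEK293, stable canine TRPM8) are seeded 24 h before assay. They are then dye-loaded with Calcium 3 at 37 °C followed by room temperature. Compound is added and monitored for 5 min, after which icilin (~80% maximal response) is added.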

Sequence of canine TRPM8 (Q1A7N1 1-1104): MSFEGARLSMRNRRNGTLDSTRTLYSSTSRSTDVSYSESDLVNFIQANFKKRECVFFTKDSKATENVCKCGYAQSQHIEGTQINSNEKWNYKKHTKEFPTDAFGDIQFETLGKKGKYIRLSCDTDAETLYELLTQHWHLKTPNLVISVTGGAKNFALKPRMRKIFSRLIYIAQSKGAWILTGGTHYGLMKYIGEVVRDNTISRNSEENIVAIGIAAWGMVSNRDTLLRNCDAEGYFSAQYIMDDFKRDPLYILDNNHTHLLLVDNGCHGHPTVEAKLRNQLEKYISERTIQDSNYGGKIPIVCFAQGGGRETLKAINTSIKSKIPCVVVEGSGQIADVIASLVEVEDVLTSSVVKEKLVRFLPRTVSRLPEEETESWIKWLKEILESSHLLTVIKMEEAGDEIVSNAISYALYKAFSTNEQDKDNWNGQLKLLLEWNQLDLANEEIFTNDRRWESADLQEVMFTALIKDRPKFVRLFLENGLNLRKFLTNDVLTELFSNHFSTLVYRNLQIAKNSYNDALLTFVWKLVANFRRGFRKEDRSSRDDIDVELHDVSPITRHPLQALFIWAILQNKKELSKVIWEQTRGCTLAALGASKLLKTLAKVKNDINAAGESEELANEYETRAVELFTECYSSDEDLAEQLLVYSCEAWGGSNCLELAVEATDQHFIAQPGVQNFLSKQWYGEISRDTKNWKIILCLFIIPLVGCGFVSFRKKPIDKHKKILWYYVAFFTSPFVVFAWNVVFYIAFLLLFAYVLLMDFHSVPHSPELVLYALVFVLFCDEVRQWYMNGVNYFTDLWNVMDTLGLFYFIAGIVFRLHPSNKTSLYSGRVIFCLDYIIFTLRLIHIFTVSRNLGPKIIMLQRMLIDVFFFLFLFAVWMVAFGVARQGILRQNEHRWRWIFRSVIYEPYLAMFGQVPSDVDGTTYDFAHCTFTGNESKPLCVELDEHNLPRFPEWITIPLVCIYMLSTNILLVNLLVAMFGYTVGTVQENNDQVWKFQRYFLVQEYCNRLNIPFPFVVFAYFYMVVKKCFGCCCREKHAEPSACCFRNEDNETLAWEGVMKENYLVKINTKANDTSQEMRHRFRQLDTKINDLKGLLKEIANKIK

SMILES	IC50	inhibition at 0.2 µM	% Inh @ 0.2 (μM)
CC(C)(O)c1c(N(Cc2ccc(F)c(Cl)c2)S(=O)(=O)c2ccc(Br)cc2)sc2ccccc12 [Compound 737, N-(3-Chloro-4-fluorobenzyl)-N-(3-(1-hydroxy-1-methyl-ethyl)-benzo[b]thiophen-2-yl)-4-bromo-benzenesulfonamide]	29.9 nM	101%	–
Cc1c(N(CCC2CC2)S(=O)(=O)c2ccc(N3CCSCC3)cc2)sc2ccccc12 [Compound 740, N-(3-Methyl-benzo[b]thiophen-2-yl)-N-(cyclopropyl-ethyl)-4-thiomorpholin-4-yl-benzenesulfonamide]	–	57%	–
Cc1c(N(CCC2CC2)S(=O)(=O)c2ccc(N3CCNCC3)cc2)sc2ccccc12 [Compound 742, N-(3-Methyl-benzo[b]thiophen-2-yl)-N-(cyclopropyl-ethyl)-4-(piperazin-1-yl)-benzenesulfonamide]	–	66%	–
COc1cc(NS(C)(=O)=O)ccc1S(=O)(=O)N(Cc1ccc(F)c(C(F)(F)F)c1)c1cc2ccccc2s1 [Compound 743, N-(Benzo[b]thiophen-2-yl)-N-(4-fluoro-3-trifluoromethyl-benzyl)-4-methanesulfonylamino-2-methoxy-benzenesulfonamide]	–	32%	–
COc1cc(NS(C)(=O)=O)ccc1S(=O)(=O)N(Cc1ccc(F)c(C(F)(F)F)c1)c1sc2ccccc2c1Cl [Compound 744, N-(3-Chloro-benzo[b]thiophen-2-yl)-N-(4-fluoro-3-trifluoromethyl-benzyl)-4-methanesulfonylamino-2-methoxy-benzenesulfonamide]	57.3 nM	99%	–
Cc1c(N(CCC2CC2)S(=O)(=O)c2nc3ccccc3n2C)sc2ccccc12 [Compound 745, N-(Cyclopropyl-ethyl)-N-(3-methyl-benzo[b]thiophen-2-yl)-1-methyl-1H-benzimidazole-2-sulfonamide]	84.9 nM	74%	–
Cc1c(N(Cc2ccc(OC(F)(F)F)cc2)S(=O)(=O)c2nc3ccccc3n2C)sc2ccccc12 [Compound 746, N-(3-Methyl-benzo[b]thiophen-2-yl)-N-(4-trifluoromethoxy-benzyl)-1-methyl-1H-benzimidazole-2-sulfonamide]	–	31%	–
Cc1c(N(Cc2ccc(F)c(C(F)(F)F)c2)S(=O)(=O)c2ccc3c(c2)CC(N)C3)sc2ccccc12 (stereo not shown) [Compound 747, 2-Amino-indan-N-(3-methyl-benzo[b]thiophen-2-yl)-N-(4-fluoro-3-trifluoromethyl-benzyl)-N-sulfonamide]	–	–	48%
Cc1c(N(CCC2CC2)S(=O)(=O)c2ccc(N3CCCCC3)cc2)sc2ccccc12 [Compound 751, N-(3-Methyl-benzo[b]thiophen-2-yl)-N-(cyclopropyl-ethyl)-4-piperidin-1-yl-benzenesulfonamide]	–	54%	–
Cc1c(N(CCCCC(F)(F)F)S(=O)(=O)c2ccc(N3CCCCC3)cc2)sc2ccccc12 [Compound 752, N-(3-Methyl-benzo[b]thiophen-2-yl)-N-(5,5,5-trifluoro-pentyl)-4-piperidine-benzenesulfonamide]	–	–	65%
COC(=O)CCS(=O)(=O)N(Cc1cccc(OC(F)(F)F)c1)c1sc2ccccc2c1C [Compound 760, N-(3-Methyl-benzo[b]thiophen-2-yl)-N-(3-trifluoromethoxy-benzyl)-2-carbomethoxy-ethanesulfonamide]	45.9 nM	94%	–
COC(=O)CS(=O)(=O)N(Cc1ccc(OC(F)(F)F)cc1)c1sc2ccccc2c1C [Compound 761, N-(3-Methyl-benzo[b]thiophen-2-yl)-N-(4-trifluoromethoxy-benzyl)-carbomethoxy-methanesulfonamide]	40 nM	79%	–
Cc1c(N(Cc2ccc(F)c(C(F)(F)F)c2)S(=O)(=O)c2ccc3c(c2)CN(C)CC3)sc2ccccc12 [Compound 767, 2-Methyl-N-(4-fluoro-3-trifluoromethyl-benzyl)-N-(3-methyl-benzo[b]thiophen-2-yl)-1,2,3,4-tetrahydroisoquinolin-7-yl-sulfonamide]	89.2 nM	77%	–

The next lines start with results.

IC50	inhibition at 0.2 µM	SMILES	% Inh @ 0.2 (μM)
8.9 nM	102%	Cc1c(N(CCC2CC2)S(=O)(=O)c2ccc(N(C)C)cc2)sc2ccccc12 [Compound 738, N-(3-Methyl-benzo[b]thiophen-2-yl)-N-(cyclopropyl-ethyl)-4-dimethylamino-benzenesulfonamide]	–
23.2 nM	90%	CCN(CC)c1ccc(S(=O)(=O)N(CCC2CC2)c2sc3ccccc3c2C)cc1 [Compound 739, N-(3-Methyl-benzo[b]thiophen-2-yl)-N-(cyclopropyl-ethyl)-4-diethylamino-benzenesulfonamide]	–
17.3 nM	101%	Cc1c(N(CCC2CC2)S(=O)(=O)c2ccc(N3CCOCC3)cc2)sc2ccccc12 [Compound 741, N-(3-Methyl-benzo[b]thiophen-2-yl)-N-(cyclopropyl-ethyl)-4-morpholino-benzenesulfonamide]	–
5.3 nM	101%	Cc1c(N(CCCCC(F)(F)F)S(=O)(=O)c2ccc(N(C)C)cc2)sc2ccccc12 [Compound 748, N-(3-Methyl-benzo[b]thiophen-2-yl)-N-(5,5,5-trifluoro-pentyl)-4-dimethylamino-benzenesulfonamide]	–
9.2 nM	101%	Cc1c(N(CCCCC(F)(F)F)S(=O)(=O)c2ccc(N3CCOCC3)cc2)sc2ccccc12 [Compound 750, N-(3-Methyl-benzo[b]thiophen-2-yl)-N-(5,5,5-trifluoro-pentyl)-4-morpholino-benzenesulfonamide]	–
27.2 nM	69%	COC(=O)c1ccc(S(=O)(=O)N(Cc2ccc(OC(F)(F)F)cc2)c2sc3ccccc3c2C2CC2)cc1 [Compound 753, N-(3-Cyclopropyl-benzo[b]thiophen-2-yl)-N-(4-trifluoromethoxy-benzyl)-4-carbomethoxy-benzenesulfonamide]	–
16.4 nM	82%	COC(=O)c1ccc(S(=O)(=O)N(Cc2ccc(OC(F)(F)F)cc2)c2sc3ccccc3c2C2CCC2)cc1 [Compound 754, N-(3-Cyclobutyl-benzo[b]thiophen-2-yl)-N-(4-trifluoromethoxy-benzyl)-4-carbomethoxy-benzenesulfonamide]	–
0.9 nM	101%	O=C(O)c1ccc(S(=O)(=O)N(Cc2ccc(OC(F)(F)F)cc2)c2sc3ccccc3c2C2CC2)cc1 [Compound 755, N-(3-Cyclopropyl-benzo[b]thiophen-2-yl)-N-(4-trifluoromethoxyl-benzyl)-4-carboxy-benzenesulfonamide]	–
1.4 nM	101%	O=C(O)c1ccc(S(=O)(=O)N(Cc2ccc(OC(F)(F)F)cc2)c2sc3ccccc3c2C2CCC2)cc1 [Compound 756, N-(3-Cyclobutyl-benzo[b]thiophen-2-yl)-N-(4-trifluoromethoxy-benzyl)-4-carboxy-benzenesulfonamide]	–
10.8 nM	101%	COC(=O)CCCS(=O)(=O)N(Cc1ccc(F)c(C(F)(F)F)c1)c1sc2ccccc2c1C [Compound 757, N-(4-Fluoro-3-trifluoromethyl-benzyl)-N-(3-methyl-benzo[b]thiophen-2-yl)-3-carbomethoxy-propanesulfonamide]	–
5.1 nM	101%	Cc1c(N(Cc2ccc(F)c(C(F)(F)F)c2)S(=O)(=O)CCCCO)sc2ccccc12 [Compound 758, N-(4-Fluoro-3-trifluoromethyl-benzyl)-N-(3-methyl-benzo[b]thiophen-2-yl)-4-hydroxy-butanesulfonamide]	–
18.3 nM	101%	Cc1c(N(Cc2ccc(F)c(C(F)(F)F)c2)S(=O)(=O)CCCC(C)(C)O)sc2ccccc12 [Compound 759, N-(4-Fluoro-3-trifluoromethyl-benzyl)-N-(3-methyl-benzo[b]thiophen-2-yl)-4-hydroxy-4-methyl-pentane-1-sulfonamide]	–
25.3 nM	101%	Cc1c(N(Cc2cccc(OC(F)(F)F)c2)S(=O)(=O)CCC(=O)O)sc2ccccc12 [Compound 762, N-(3-Methyl-benzo[b]thiophen-2-yl)-N-(3-trifluoromethoxy-benzyl)-2-carboxy-ethanesulfonamide]	–
27.7 nM	102%	Cc1c(N(Cc2cccc(OC(F)(F)F)c2)S(=O)(=O)CCC(C)(C)O)sc2ccccc12 [Compound 763, N-(3-Methyl-benzo[b]thiophen-2-yl)-N-(3-trifluoromethoxy-benzyl)-3-hydroxy-3-methyl-butane-1-sulfonamide]	–
22.1 nM	101%	Cc1c(N(Cc2cccc(OC(F)(F)F)c2)S(=O)(=O)CCCO)sc2ccccc12 [Compound 764, N-(3-Methyl-benzo[b]thiophen-2-yl)-N-(3-trifluoromethoxy-benzyl)-3-hydroxy-propanesulfonamide]	–
13.6 nM	101%	Cc1c(N(Cc2ccc(F)c(C(F)(F)F)c2)S(=O)(=O)CCCC(=O)O)sc2ccccc12 [Compound 765, N-(4-Fluoro-3-trifluoromethyl-benzyl)-N-(3-methyl-benzo[b]thiophen-2-yl)-3-carboxy-propanesulfonamide]	–
7.8 nM	101%	COc1cc(NS(C)(=O)=O)c(Cl)cc1S(=O)(=O)N(Cc1ccc(F)c(C(F)(F)F)c1)c1sc2ccccc2c1Cl [Compound 766, 5-Chloro-N-(3-chloro-benzo[b]thiophen-2-yl)-N-(4-fluoro-3-trifluoromethyl-benzyl)-4-methanesulfonylamino-2-methoxy-benzenesulfonamide]	–
18.8 nM	93%	C=C(C)c1c(N(Cc2cc(OC)c(Cl)cc2F)S(=O)(=O)CC)sc2ccccc12 [Compound 768, N-(4-Chloro-2-fluoro-5-methoxy-benzyl)-N-(3-isopropenyl-benzo[b]thiophen-2-yl)-ethanesulfonamide]	–
